Like-named read-outs stand apart in the source and are kept apart here. Where no end group is shown, it is not given here.
Assays:
[1] = Nanofiber formation (AFM, ThT binding); assay type: physicochemical; settings: physiological conditions
mice [2] = experiment: Immunization with four (KEYA)nQ11 lengths, anti-immunizing peptide IgG titers; assay type: in vivo
[3] = system: lymphocytes from draining lymph nodes; experiment: ELISpot on draining lymph nodes restimulated with immunizing peptide; assay type: in vivo, mice; settings: for induction of antibody and T cell responses: summary of antibody and ELISpot results
DC2.4 cells = experiment: Confocal microscopy of nanofiber internalization; assay type: cell-based; settings: after 24 hours
local macrophages = experiment: In vivo APC uptake of fluorescent nanofibers after i.p. injection; parameters: species or system mice; settings: 2 hours
Dendritic cells = experiment: as above; parameters: species or system mice; settings: 2 hours
mice [4] = experiment: Immunization with Q11 nanofibers containing 1-50% (KEYA)20Q11, anti-p(KEYA)20 IgG titers; assay type: in vivo; settings: 2 mM total formulation with Q11, boosted every 2.5 weeks
Method: FIG. 5. Titration of (KEYA)20 component modulates the strength of engagement with APCs and humoral immunity while maintaining a Type 2 T cell phenotype. Uptake of TAMRA labeled (KEYA)20Q11 in (a) DC2.4 dendritic cells, RAW264.7 macrophages, and B-LCL human B cells stimulated for 0.1, 0.5, 2, 24, and 72 (B cells only) hours measured by flow cytometry. 100% refers to the molar percent of (KEYA)20 incorporated into a 2 mM Q11 nanofiber. 10% indicates 10% (KEYA)20Q11 and 90% Q11, while 0% indicates the entire nanofiber contains only Q11. All groups included 2.5% fluorescent TAMRA-Q11. (b) Representative confocal images of fluorescent Q11 and (KEYA)20Q11 stimulated DC2.4 cells. Nanofibers seen in red, cell nuclei in blue, and cell borders in green. […] (c) Populations of mouse APCs containing nanofibers collected 12 hours after i.p. injection. (d) Cartoon indicating the boosting schedule and graph of the anti-p(KEYA)20 IgG antibody titers. 50% (KEYA)20 is represented darkest red, 33% (KEYA)20 in the second darkest, 10% (KEYA)20 in the second lightest, and 1% (KEYA)20 in the lightest color. Week 16 IgG1 and IgG2c isotypes are shown in (e), (KEYA)20 only produces an IgG1 response when at 33% and 50%. […]

[5] = system: Lymphocyte populations purified from spleens; experiment: ELISpot after immunization with (KEYA)20Q11 co-assembled with PADREQ11; assay type: in vivo, mice; settings: co-assembled with 2.5% PADREQ11; 3.5 weeks
Method: FIG. 6. (KEYA)20Q11 can enhance the T cell stimulatory capabilities of other T and B cell epitopes. (a) ELISpot from mice immunized and boosted with nanofiber formulations containing 2.5% PADREQ11 and either 97.5% (dark red), 2.5% (light red), or 0% (gray) (KEYA)20Q11 co-assembled with Q11 into a 2 mM nanofiber. […] (b) ELISpot from mice immunized and boosted with nanofiber formulations containing 50% NPQ11 and either 50% (red), or 0% (gray) (KEYA)20Q11 co-assembled with Q11 into a 2 mM nanofiber. […] (c) Cartoon of immunization schedule for figures (d) and (e). All groups contained 50% TNFQ11 (d) anti-TNF IgG antibody titers for groups described in (c). (e) anti-TNF IgG1 and IgG2c antibodies. *p<0.05, **p<0.01, ***p<0.001 by 2way ANOVA with Sidak's post hoc test.
Enhancement of co-assembled T and B cell epitopes. Having characterized (KEYA)20Q11 and the subsequent humoral and cellular responses, the inventors tested the hypothesis that co-assembling (KEYA)20Q11 with other epitopes may enhance the response to the co-assembled epitope. Previous work has established a method for ensuring co-assembly of multiple epitopes onto a single nanofiber^38. Highlighting an advantage of the Q11 system, we were able to systematically add and titrate co-assembled (KEYA)20Q11 with a variety of T and B cell epitopes to investigate the resulting magnitude of immune responses. […]

[6] = system: purified lymphocyte populations from spleens; experiment: ELISpot after immunization with (KEYA)20Q11 co-assembled with NP-Q11; assay type: in vivo, mice; settings: week 3.5
mice [7] = experiment: Multiplex cytokine analysis of lavage fluid after i.p. injection; assay type: in vivo; settings: for IFNγ in lavage fluid / IL1β in lavage fluid / IL6 in lavage fluid: 2-hour i.p. stimulation, versus PBS
From the text: Immune activation is not mediated by inflammation.

splenocytes = experiment: Flow cytometry of splenocytes after s.c. immunization; assay type: in vivo, mice; settings: spleens 5 days after last boost; for CD4+CD25hi T cells (Tregs): versus PBS
From the text: FIG. 8. […] (a) Cartoon of s.c. immunization schedule with either (KEYA)20Q11 (red), Q11 (blue), PBS (gray). Spleens were harvested at week 6. Percent of (b) CD3+ cells and (c) CD3+IL4+ cells from total number of live cells. Percent of (d) CD4+ cells and (e) CD4+IL4+ cells from total number of CD3+ cells. […] Mean+/−s.e.m. shown. n=4-5 experimental replicates per group.
Mice were immunized and boosted twice with (KEYA)20Q11, Q11, or PBS ([…]) and their spleens were harvested 5 days after the last boost. After the splenocytes were stimulated overnight with their immunizing peptide, cells were stained and taken to flow cytometry for analysis.

[8] = parameters: species or system mice; settings: mouse, in vivo; for persistence at the injection site (average days fluorescence detected): sc
From the text: Persistence at the injection site.

mice [9] = settings: mouse, in vivo
Method: (§1) (a) Footpad swelling measured 3, 6, 12, 24, 48, and 72 hours following a single footpad injection of (KEYA)20Q11 (red), Alum (dark gray), or PBS (light gray) and subtracted from baseline measurements. […] Mean+/−s.e.m. shown. n=3-5 experimental replicates per group.
(§2) Mice were injected sub-dermally on the back-right footpad with (KEYA)20Q11, Alum, or PBS to determine extent of inflammation caused by the nanomaterial (FIG. 7a). […] Footpad swelling was measured over the course of 72 hours and normalized to a pre-injection footpad thickness measurement.

[10] = mouse, in vivo
Method: Mice injected with TAMRA labeled Q11 on the left flank and (KEYA)20Q11 on the right were (a) measured with IVIS immediately after injection and daily for 7 days. (b) The number of days the fluorescence was detected was graphed to compare the persistence between the two groups. (c) The radiant efficiency was calculated from the images collected and graphed on a log 10 scale. (d) Total amount of remaining nanofiber and (e) overlap between nanofibers and CD45+ cells calculated from confocal images. (f) Representative confocal images from injection site skin collected on Day 7.
Persistence at the injection site. […] Uptake by APCs occurs primarily at the s.c. injection site, so we used IVIS to image mice injected with fluorescently labeled nanofibers over the course of a week. Mice were injected with Q11 on their left flank and (KEYA)20Q11 on their right (FIG. 9a) and images were taken daily to measure the retention of each nanomaterial at the injection site. […] Skin sections were taken of the injection site on day 7 and stained with CD45, a common lymphocyte marker, and DAPI, a common cell nuclei stain (FIG. 9d-f).

DC2.4 dendritic cells = experiment: alamarBlue cell viability assay; settings: 0.2-200 μM, compared to untreated cells
RAW264.7 macrophages = experiment: alamarBlue cell viability assay; settings: 0.2-200 μM, compared to untreated cells
[11] = cited from earlier work
mice [12] = experiment: Footpad swelling after footpad injection; settings: single footpad injection, measured over 72 hours, compared to PBS
Method: as §1, §2

influenza = experiment: Unpublished studies of NP-Q11 flu epitope; assay type: in vivo
[13] = 12-hour i.p. stimulation, compared to PBS

Compound: XXXXXXXXXXXXXXXXXXXXQQKFQFQFEQQ [(KEYA)20Q11]
- nanofiber formation [1]: self-assembles into nanofibers
- Th2 response indicated by IgG1 versus IgG2c titers (mice [2]; week 14): strong Th2 response
- induction of antibody and T cell responses [3]: strong antibody and T cell responses
- IL4 production by T cells (ELISpot) ([3]; week 14, compared with (KEYA)1Q11 or (KEYA)5Q11): significantly higher IL4 production
- internalization seen by confocal microscopy (DC2.4 cells): abundantly present
- local macrophages with nanofiber uptake (local macrophages): ~100%
- dendritic cell population with nanofiber uptake (Dendritic cells): about 60%
- molar concentration in nanofiber necessary to stimulate a (KEYA)20-specific IgG humoral response (mice [4]): ≥ 33%
- Type 2 T cell bias upon re-stimulation with p(KEYA)20 [5]: statistically higher production of IL4 than IFNγ
- T cell response to pNP ([6]; 50% (KEYA)20Q11 co-assembled with 50% NP-Q11 versus 0%): significantly enhanced
- response to re-stimulation with p(KEYA)20 ([6]; co-assembled with 50% NP-Q11): strong response
- IFNγ in lavage fluid (mice [7]): indistinguishable from PBS
- IL1β in lavage fluid (mice [7]): indistinguishable from PBS
- IL6 in lavage fluid (mice [7]): indistinguishable from PBS
- IL4 in lavage fluid (mice [7]; [13]): significantly elevated
- IL5 in lavage fluid (mice [7]; [13]): significantly elevated
- CD4+ T cells (splenocytes): slight reduction
- general proliferation of T cells (total percent of CD3+ cells) (splenocytes): no effect
- percent of IL4+ CD3+ cells (splenocytes): significantly higher percent
- percent of IL4+ CD4+ T cells (splenocytes): increase
- CD4+CD25hi T cells (Tregs) (splenocytes): increases the production of Tregs
- amount retained at the site by radiant efficiency [8]: greater amounts
- persists at the injection site and maintains immunogenicity [8]: up to 7 days
- persistence at the injection site (average days fluorescence detected) [8]: 5 days
- footpad swelling (mice [9]): no distinguishable swelling
- capsule formation around the injected material [10]: little to no capsule formation

Compound: C[S+](C)[O-] [DMSO]
- cell viability (health of the dendritic cells) (DC2.4 dendritic cells): dose dependent cytotoxic response
- cell viability (health of the macrophages) (RAW264.7 macrophages): dose dependent cytotoxic response

Compound: XQQKFQFQFEQQ (not fully specified; X: randomised place (mixture)) [(KEYA)1Q11]
- (KEYA)n-specific IgG antibodies (mice [2]; boosted every 2.5 weeks, 14-week experiment): no humoral response
- induction of antibody and T cell responses [3]: ineffective at inducing immune responses

Compound: SSQNSSDKPVAHVVANHQVE-SGSG-QQKFQFQFEQQ (SSQNSSDKPVAHVVANHQVESGSGQQKFQFQFEQQ; Synthetic- TNF-Q11 TNF4-23 linked to (KEYA)20Q11)
- effect on inflammation ([11]; when a strong B cell response is raised): effectively reduce inflammation

Compound: Alum
- footpad swelling (mice [12]): significantly larger swelling

Compound: QQKFQFQFEQQ (Synthetic- KEYA Q11) [reference compound]
- internalization seen by confocal microscopy (DC2.4 cells): minimally internalized
- local macrophages with nanofiber uptake (local macrophages): ~100%
- dendritic cell population with nanofiber uptake (Dendritic cells): about 25%
- IFNγ in lavage fluid (mice [7]): indistinguishable from PBS
- IL1β in lavage fluid (mice [7]): indistinguishable from PBS
- IL6 in lavage fluid (mice [7]): indistinguishable from PBS
- CD4+CD25hi T cells (Tregs) (splenocytes): significantly increases
- persistence at the injection site (average days fluorescence detected) [8]: 3 days
- inflammation after injection ([11]; in vivo): not inflammatory
- humoral response ([11]; previous reports): no humoral response

Compound: NH2-QVYSLIRPNENPAHK SGSG QQKFQFQFEQQ-Am (H-QVYSLIRPNENPAHKSGSGQQKFQFQFEQQ-NH2; also: linked to (KEYA)20Q11) [NP-Q11]
- protection against an influenza challenge (influenza; unpublished studies): does not raise strong enough responses to be protective
- T cell response phenotype (influenza; unpublished work): IFNγ biased T cell responses

Source: patent US20220194989A1, “SUPRAMOLECULAR POLYPEPTIDE COMPOSITIONS AND METHODS OF MAKING AND USING THE SAME” (Duke University, priority 2019, published 2022)
